The target in this test is hQC (Homo sapiens, UniProt Q16769). Description: Inhibitor assay for glutaminyl cyclase activity (fluorometric, H-Gln-βNA / H-Gln-AMC). To be noted: read-out: IC50. It counts as biochemical. In outline:
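Ki values came from fitting progress curves to a competitive inhibition model; rapid screens used 4 mM inhibitor with substrate at KM. QC activity was read at 30 °C via auxiliary pyroglutamyl aminopeptidase releasing βNA (0.2 mM H-Gln-βNA, 0.2 M Tris pH 8.0, 20 mM EDTA) or AMC (0.05 M Tris pH 8.0, 5 mM EDTA).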

Each structure is given as a SMILES string.

This passage reports IC50 results from patent publication US8278345B2, “Inhibitors of glutaminyl cyclase” (Probiodrug AG, priority 2006, dated 2012).

Usually IC50 stands for the concentration needed to halve the response being measured.

Chain of hQC (Q16769 29-361): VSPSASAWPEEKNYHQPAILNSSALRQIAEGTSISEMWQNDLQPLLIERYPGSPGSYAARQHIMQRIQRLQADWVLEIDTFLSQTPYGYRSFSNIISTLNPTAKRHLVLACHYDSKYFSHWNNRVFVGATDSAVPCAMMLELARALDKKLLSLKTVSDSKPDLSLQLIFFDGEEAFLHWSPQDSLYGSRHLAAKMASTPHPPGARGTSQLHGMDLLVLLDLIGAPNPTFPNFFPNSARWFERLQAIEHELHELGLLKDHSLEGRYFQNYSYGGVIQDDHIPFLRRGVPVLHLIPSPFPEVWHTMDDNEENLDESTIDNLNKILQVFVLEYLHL

For `CCCCCC1=C(O)C(=O)N(CCCn2ccnc2)C1c1ccncc1` (centres unmarked) [Compound 209, 3-Hydroxy-1-(3-imidazol-1-yl-propyl)-4-pentyl-5-pyridin-4-yl-1,5-dihydro-pyrrol-2-one], the 50% inhibitory concentration (IC50) is 40 nM.

Turning to `CC1=C(O)C(=O)N(CCCn2ccnc2)C1c1ccccc1F` (centres unmarked) [Compound 51, 5-(2-Fluoro-phenyl)-3-hydroxy-1-(3-imidazol-1-yl-propyl)-4-methyl-1,5-dihydro-pyrrol-2-one], the IC50 came to 1300 nM.

For `CC(C)C1=C(O)C(=O)N(CCCn2ccnc2)C1c1ccncc1` (centres unmarked) [Compound 70, 3-Hydroxy-1-(3-imidazol-1-yl-propyl)-4-isopropyl-5-pyridin-4-yl-1,5-dihydro-pyrrol-2-one], the half-inhibitory concentration (IC50) was determined as 4900 nM.

On to `CC(=O)C1=C(O)C(=O)N(c2ccc3[nH]cnc3c2)C1c1cc[nH]n1` (centres unmarked) [Compound 444, 4-Acetyl-1-(1H-benzoimidazol-5-yl)-3-hydroxy-5-(1H-pyrazol-3-yl)-1,5-dihydro-pyrrol-2-one], for which the IC50 came to 6880 nM.

For the compound `O=C1C(O)=C(c2ccc(O)cc2)C(c2ccco2)N1CCCn1ccnc1` (centres unmarked) [Compound 176, 5-Furan-2-yl-3-hydroxy-4-(4-hydroxy-phenyl)-1-(3-imidazol-1-yl-propyl)-1,5-dihydro-pyrrol-2-one], the IC50 was determined as 40 nM.

Turning to `CC(C)C1=C(O)C(=O)N(c2ccc3[nH]cnc3c2)C1c1ccc(O)c(Br)c1` (centres unmarked) [Compound 377, 1-(1H-Benzoimidazol-5-yl)-5-(3-bromo-4-hydroxy-phenyl)-3-hydroxy-4-isopropyl-1,5-dihydro-pyrrol-2-one], the 50% inhibitory concentration (IC50) worked out at 1480 nM.

Take `CC(C)CC(=O)C1=C(O)C(=O)N(c2ccc3[nH]cnc3c2)C1c1c(F)c(F)cc(F)c1F` (centres unmarked) [Compound 423, 1-(1H-Benzoimidazol-5-yl)-3-hydroxy-4-(3-methyl-butyryl)-5-(2,3,5,6-tetrafluoro-phenyl)-1,5-dihydro-pyrrol-2-one]: the half-maximal inhibitory concentration (IC50) worked out at 40 nM.

`Cc1ccc2c(C3C(c4ccccc4)=C(O)C(=O)N3CCCn3ccnc3)c[nH]c2c1` (centres unmarked) [Compound 95, 3-Hydroxy-1-(3-imidazol-1-yl-propyl)-5-(6-methyl-1H-indol-3-yl)-4-phenyl-1,5-dihydro-pyrrol-2-one]: the IC50 turned out to be 40 nM.

With `CCCCCC1=C(O)C(=O)N(CCCn2ccnc2)C1c1ccccc1` (centres unmarked) [Compound 199, 3-Hydroxy-1-(3-imidazol-1-yl-propyl)-4-pentyl-5-phenyl-1,5-dihydro-pyrrol-2-one], the IC50 came out at 40 nM.

As to `CCCCCC1=C(O)C(=O)N(CCCn2ccnc2)C1C(O)CO` (centres unmarked) [Compound 189, 5-(1,2-Dihydroxy-ethyl)-3-hydroxy-1-(3-imidazol-1-yl-propyl)-4-pentyl-1,5-dihydro-pyrrol-2-one], the IC50 worked out at 400 nM.

On to `CCCCCC1=C(O)C(=O)N(CCCn2ccnc2)C1c1cc[nH]n1` (centres unmarked) [Compound 188, 3-Hydroxy-1-(3-imidazol-1-yl-propyl)-4-pentyl-5-(1H-pyrazol-3-yl)-1,5-dihydro-pyrrol-2-one], for which the IC50 was found to be 400 nM.

For `CC1=C(O)C(=O)N(c2ccc3[nH]cnc3c2)C1c1ccc(Cl)c(C(F)(F)F)c1` (centres unmarked) [Compound 460, 1-(1H-Benzoimidazol-5-yl)-5-(4-chloro-3-trifluoromethyl-phenyl)-3-hydroxy-4-methyl-1,5-dihydro-pyrrol-2-one], the half-inhibitory concentration (IC50) was 9850 nM.

Turning to `O=C(C1=C(O)C(=O)N(c2ccc3[nH]cnc3c2)C1c1ccc(CO)o1)c1ccsc1` (centres unmarked) [Compound 263, 1-(1H-Benzoimidazol-5-yl)-3-hydroxy-5-(5-hydroxymethyl-furan-2-yl)-4-(thiophene-3-carbonyl)-1,5-dihydro-pyrrol-2-one], the IC50 came to 2020 nM.

With `O=C1C(O)=C(c2cccc(O)c2)C(c2ccc(CO)o2)N1CCCn1ccnc1` (centres unmarked) [Compound 17, 3-Hydroxy-5-(5-hydroxymethyl-furan-2-yl)-4-(3-hydroxy-phenyl)-1-(3-imidazol-1-yl-propyl)-1,5-dihydro-pyrrol-2-one], the half-maximal inhibitory concentration (IC50) is 5800 nM.

Turning to `CCC1=C(O)C(=O)N(CCCn2ccnc2)C1c1ccc(O)cc1` (centres unmarked) [Compound 251, 4-Ethyl-3-hydroxy-5-(4-hydroxy-phenyl)-1-(3-imidazol-1-yl-propyl)-1,5-dihydro-pyrrol-2-one], the IC50 is 400 nM.

Take `CCC1=C(O)C(=O)N(c2ccc3[nH]cnc3c2)C1c1ccc2nonc2c1` (centres unmarked) [Compound 431, 1-(1H-Benzoimidazol-5-yl)-5-(benzo[c][1,2,5]oxadiazol-5-yl)-4-ethyl-3-hydroxy-1,5-dihydro-pyrrol-2-one]: the IC50 was 2110 nM.

In the case of `O=C(C1=C(O)C(=O)N(c2ccc3[nH]cnc3c2)C1c1ccc(CO)o1)c1cccs1` (centres unmarked) [Compound 369, 1-(1H-Benzoimidazol-5-yl)-3-hydroxy-5-(5-hydroxymethyl-furan-2-yl)-4-(thiophene-2-carbonyl)-1,5-dihydro-pyrrol-2-one], the concentration for half-maximal inhibition (IC50) stood at 1570 nM.

Turning to `O=C1C(O)=C(c2c[nH]c3ccccc23)C(CO)N1CCCn1ccnc1` (centres unmarked) [Compound 138, 3-Hydroxy-5-hydroxymethyl-1-(3-imidazol-1-yl-propyl)-4-(1H-indol-3-yl)-1,5-dihydro-pyrrol-2-one], the concentration for half-maximal inhibition (IC50) was 40 nM.

For the compound `Cc1ccc(C2C(c3ccc(O)cc3)=C(O)C(=O)N2CCCn2ccnc2)o1` (centres unmarked) [Compound 154, 3-Hydroxy-4-(4-hydroxy-phenyl)-1-(3-imidazol-1-yl-propyl)-5-(5-methyl-furan-2-yl)-1,5-dihydro-pyrrol-2-one], the half-inhibitory concentration (IC50) was 40 nM.

For the compound `Cc1ccc(C2C(C(=O)CC(C)C)=C(O)C(=O)N2c2ccc3[nH]cnc3c2)o1` (centres unmarked) [Compound 289, 1-(1H-Benzoimidazol-5-yl)-3-hydroxy-4-(3-methyl-butyryl)-5-(5-methyl-furan-2-yl)-1,5-dihydro-pyrrol-2-one], the IC50 was 760 nM.

Turning to `O=C1C(O)=C(c2ccccc2)C(C2CC2)N1CCCn1ccnc1` (centres unmarked) [Compound 105, 5-Cyclopropyl-3-hydroxy-1-(3-imidazol-1-yl-propyl)-4-phenyl-1,5-dihydro-pyrrol-2-one], the IC50 was 400 nM.

As for `CC1=C(O)C(=O)N(c2ccc3[nH]cnc3c2)C1c1c[nH]c2cc(C)ccc12` (centres unmarked) [Compound 436, 1-(1H-Benzoimidazol-5-yl)-3-hydroxy-4-methyl-5-(6-methyl-1H-indol-3-yl)-1,5-dihydro-pyrrol-2-one], the IC50 worked out at 490 nM.

For `O=C1C(O)=C(c2cccc(O)c2)C(c2cc[nH]n2)N1c1ccc2[nH]cnc2c1` (centres unmarked) [Compound 464, 1-(1H-Benzoimidazol-5-yl)-3-hydroxy-4-(3-hydroxy-phenyl)-5-(1H-pyrazol-3-yl)-1,5-dihydro-pyrrol-2-one], the half-inhibitory concentration (IC50) was determined as 9850 nM.

As for `CCC1=C(O)C(=O)N(c2ccc3[nH]cnc3c2)C1c1cc(F)cc(F)c1F` (centres unmarked) [Compound 315, 1-(1H-Benzoimidazol-5-yl)-4-ethyl-3-hydroxy-5-(2,3,5-trifluoro-phenyl)-1,5-dihydro-pyrrol-2-one], the half-maximal inhibitory concentration (IC50) was determined as 1480 nM.

For `CC(C)(C)C(=O)C1=C(O)C(=O)N(c2ccc3[nH]cnc3c2)C1c1cc(F)cc(F)c1F` (centres unmarked) [Compound 341, 1-(1H-Benzoimidazol-5-yl)-4-(2,2-dimethyl-propionyl)-3-hydroxy-5-(2,3,5-trifluoro-phenyl)-1,5-dihydro-pyrrol-2-one], the concentration for half-maximal inhibition (IC50) stood at 4900 nM.

Take `CCC1=C(O)C(=O)N(CCCn2ccnc2)C1c1ccccc1` (centres unmarked) [Compound 236, 4-Ethyl-3-hydroxy-1-(3-imidazol-1-yl-propyl)-5-phenyl-1,5-dihydro-pyrrol-2-one]: the half-inhibitory concentration (IC50) was found to be 1300 nM.
